This is an account of results in patent US11465984B2, “Compound having ERK kinase inhibitory activity and use thereof” (SHANGHAI HAIHE PHARMACEUTICAL CO., LTD., priority 2017, dated 2022).

Usually IC50 stands for the concentration needed to halve the response being measured.

≈ marks a conversion by molar mass, not a printed value. Read-outs that look alike come from different tables or passages of the source.

Data set [1] deals with human melanoma cell line A375. As to the kind of experiment: In vitro cell study: proliferation of A375 cells (SRB). Type of data set: cell-based. As to conditions: A-375, 72 h incubation, read-out: IC50 against A375 cell. How it is done: The inhibitory activity of Compound P9 of the invention and the representative compounds of WO2017/114510A1 on the proliferation of human melanoma cell line A375 (IC50 value) was determined in this Example.
• Cell: human melanoma cell line A375 (CRL-1619™, ATCC) • Detection reagent: sulforhodamine B SRB (S9012, Sigma) • Microplate: 96 well microplate (3599, Corning) • Microplate reader: full-wavelength microplate reader (SpectraMax 190, Molecular Devices) (2). Assay Protocol:
Cells in logarithmic growth phase were seeded at appropriate density (3500/well) into 96-well microplates in the volume of 90 μL per well. After incubation in a CO2 incubator at 37° C. overnight, 10 μL of the compound at various concentrations or saline for medium control was added in triplicate and incubated for 72 h, and a blank well was set. […] The optical density (OD value) at the wavelength of 560 nm was measured using a full-wavelength microplate reader SpectraMax 190. The inhibition rate of the drug on the growth of the tumor cells was calculated according to the following formula: […]
The IC50 values were obtained by regression with four-parameter method using the software attached to the microplate reader. […]

Data set [2] in a line: Thermodynamic solubility assay. Type of data set: physicochemical. As to conditions: thermodynamic from solid, 37° C. How it is done:
The thermodynamic solubility of the compounds of the invention was determined in this Example
(3) Assay Protocol: Blank Vehicle with Different pH Values: • PH7.4: DPBS • PH6.8: 9900 μL HBSS+100 μL HEPS+5 μL 2N NaOH • […]: DPBS adjusted with 2N HCl to pH 2.0 Incubation: • About 3 mg of the compound was weighed, added with 500 μL of blank vehicle, and shaked at 37° C. for 24 h. Sample Treatment: • After incubation, the samples were centrifuged for 30 min, and the supernatant was transferred to a new EP tube and further centrifuged for 30 min • After centrifugation, the samples were diluted by 100 times with ACN/H2O (V/V, 1:1). • Linear concentration range from 12.5 nM to 1 mM was configured with ACN/H2O (V/V, 1:1). Biological Analysis: • All samples were mixed with water at the 1:1 ratio by volume, centrifuged at 4000 rpm for 5 min, and analyzed by LC-MS/MS. Analysis Methods:
Chromatography Conditions: • Analysis column: Acquity BEH C18 (1.7 μm; 2.1×50 mm, Waters) • Mobile phase A: 0.1% FA in H2O • Mobile phase B: 0.1% FA in CAN/MEOH (9:1, V/V) • Gradient: as shown in the table below.
MS/MS System • Multiple Reaction Monitoring (MRM) mode was used: […]

As for `Cn1nccc1Nc1cc(-c2cc(F)c3c(c2)CCN3C(=O)Cc2cccnc2Cl)ccn1` [Example P9, 2-(2-chloropyridin-3-yl)-1-(7-fluoro-5-(2-((1-methyl-1H-pyrazol-5-yl)amino)pyridin-4-yl)indolin-1-yl)ethan-1-one], the half-inhibitory concentration (IC50) in data set [1] was found to be 363 nM. Further, the solubility at 24 h in data set [2] (HBSS/HEPES 10 mM/BSA 0.1% pH 6.8, pH 6.8, aqueous buffer, read-out: Maximum solubility in pH 6.8 HBSS/HEPES 10 mM/BSA 0.1%) was found to be 267 ± 3 µM (≈ 124 µg/mL); in data set [2] (PBS (DPBS) pH 2.0, pH 2, aqueous buffer, read-out: Maximum solubility in pH 2.0 PBS), 2850 ± 62 µM (≈ 1320 µg/mL); in data set [2] (PBS buffer, pH 7.4, aqueous buffer, read-out: Maximum solubility in pH 7.4 PBS), 544 ± 5.3 µM (≈ 252 µg/mL).
